{"source": "PubChem BioAssay AID1963850", "about": "(Molecular Pharmacology Branch, DTP, NCI, 2024)", "system": "192522-019-R-J2-PDC complex tumor spheroid viability", "assay": "Anticancer human tumor 192522-019-R-J2-PDC patient-derived colon adenocarcinoma cell line growth inhibition [POLQ]", "settings": "for IC50: curve of first compound; for viability, T/C: stronger effect = lower value", "method": "Multicellular complex tumor spheroid response to Polymerase (POL) inhibitors (novobiocin, ART-558, RP6685) in combination with a variety of drugs and investigational agents in selected tumor cell lines\nThe POL inhibitors (novobiocin, ART-558, and RP6685) were evaluated both individually and in combination with standard of care and investigational anticancer small molecules within a complex spheroid model of solid tumors. . Complex spheroids include a stromal component modeled by human endothelial cells (HUVEC) and fibroblasts modeled by human mesenchymal stem cells (MSCs). The concentration ranges selected for each drug and investigational agent were based upon clinically achievable concentrations if the clinical Cmax of the agent was known.\nCompounds. The drugs and investigational agents: novobiocin (NSC847541), ART-558 (NSC835418), RP-6685 (NSC848927), peposertib (NSC802822), ceralasertib (NSC780249), elimusertib (NSC800525), camonsertib (NSC841442), AZD-1390 (NSC803789), olaparib (NSC753686), talazoparib (NSC767125), rucaparib (NSC756644), sotorasib (NSC818433), MRTX-1133 (NSC836407), SN-38 (NSC673596), topotecan (NSC609699), epotoside (NSC141540), doxorubicin (NSC123127), gemcitabine (NSC613327), 5-fluorouracil (NSC19893), paclitaxel (NSC125973), vemurafenib (NSC761431), MSA-2 (NSC828583), SN-011 (NSC837082), adavosertib (NSC754352), prexasertib (NSC758257), carboplatin (NSC241240) and oxaliplatin (NSC266046), were obtained from the National Cancer Institute (NCI) Developmental Therapeutics Program Chemical Repository (21). The FDA-approved anticancer drug set is available from the Developmental Therapeutics Program at https://dtp.cancer.gov/organization/dscb/obtaining/. […] The stock solutions were prepared in dimethyl sulfoxide (DMSO, Sigma-Aldrich, St. Louis, MO, cat. D2650), except for the platinum compounds which were prepared in saline (Quality Biological, Gaithersburg, MD, cat. 114-055-101), at 800-fold the tested concentration and stored at -70 degrees C prior to their use. All drugs and investigational agents were tested over a range starting from a high concentration at or near the clinical Cmax and decreasing in half-log increments. If the clinical Cmax for an agent had not been determined, the highest concentration tested was 10 microM, except for SN-38, which was tested at a high concentration of 1 microM.\nCell Culture. All cells were maintained in an incubator at 37 degrees C and 5% CO2 with 95% humidity. The PDC lines were cultured according to standard operating procedures established by the NCI PDMR (https://pdmr.cancer.gov). Table 3 of the manuscript, lists the cell lines along with the number of the three cell types plated to form the mct-spheroids and media for tumor cell growth. After thawing, all PDC lines, except 997537-175-T-J1-PDC and 415267-285-R-J2-PDC, were cultured in Matrigel-coated flasks prepared with a working solution of 1X Ham's F-12 nutrient mix, without supplementation (Thermo Fisher Scientific, cat. 11765054), 100 U/mL penicillin-streptomycin (Thermo Fisher Scientific, cat. 15140122), and 2.5% Matrigel (Corning Inc., Corning, NY, cat. 354248) for the first three passages. The two PDC lines 997537-175-T-J1-PDC and 415267-285-R-J2-PDC were cultured on uncoated flasks. The 857933-349-R-J2-PDC line was cultured in 6C/Colon 1B media containing advanced DMEM/F-12 (Thermo Fisher Scientific, cat. 12634028), 10 mM HEPES (Thermo Fisher Scientific, cat. 15630080), 1X GlutaMAX supplement (Thermo Fisher Scientific, cat. 35050061), 0.1 mg/mL primocin (InvivoGen, San Diego, CA, cat. ant-pm-2), 10% defined fetal bovine serum, heat inactivated (HyClone Laboratories Inc., Logan, UT, cat. SH30070.03HI), 50% L-WRN conditioned media (ATCC, cat. CRL-3276), 1.25 mM N-Acetyl-L-cysteine (Sigma-Aldrich, cat. A9165), 10 mM nicotinamide (Sigma-Aldrich, cat. N0636), 1X B-27 supplement (Thermo Fisher Scientific, cat. 17504044), 1X N-2 supplement (Thermo Fisher Scientific, cat. […]", "data": [{"molecule": "C#Cc1c(F)ccc2cc(O)cc(-c3ncc4c(N5CC6CCC(C5)N6)nc(OCC56CCCN5CC(F)C6)nc4c3F)c12", "note": "(configuration not stated) + COC1C(OC(N)=O)C(O)C(Oc2ccc3c(O)c(NC(=O)c4ccc(O)c(CC=C(C)C)c4)c(=O)oc3c2C)OC1(C)C;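 also: spheroids exposed to drugs for seven days before reading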;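 as to viability, T/C: 100% = DMSO vehicle control viability in luminescence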", "values": [{"measurement": "IC50", "setting": "second compound 0.0316 µM", "value": "> 10", "unit": "µM"}, {"measurement": "IC50", "setting": "second compound 0.1 µM", "value": "> 10", "unit": "µM"}, {"measurement": "IC50", "setting": "second compound 0.316 µM", "value": "> 10", "unit": "µM"}, {"measurement": "IC50", "setting": "second compound 1 µM", "value": "> 10", "unit": "µM"}, {"measurement": "IC50", "setting": "second compound 3.16 µM", "value": "> 10", "unit": "µM"}, {"measurement": "IC50", "setting": "second compound 10 µM", "value": "> 10", "unit": "µM"}, {"measurement": "viability, T/C", "setting": "second compound 0.0316 µM, first compound 0.0316 µM", "value": 97.7, "unit": "%"}, {"measurement": "viability, T/C", "setting": "second compound 0.0316 µM, first compound 0.1 µM", "value": 78.8, "unit": "%"}, {"measurement": "viability, T/C", "setting": "second compound 0.0316 µM, first compound 0.316 µM", "value": 81.6, "unit": "%"}, {"measurement": "viability, T/C", "setting": "second compound 0.0316 µM, first compound 1 µM", "value": 76.1, "unit": "%"}, {"measurement": "viability, T/C", "setting": "second compound 0.0316 µM, first compound 3.16 µM", "value": 73.4, "unit": "%"}, {"measurement": "viability, T/C", "setting": "second compound 0.0316 µM, first compound 10 µM", "value": 68, "unit": "%"}, {"measurement": "viability, T/C", "setting": "second compound 0.1 µM, first compound 0.0316 µM", "value": 98, "unit": "%"}, {"measurement": "viability, T/C", "setting": "second compound 0.1 µM, first compound 0.1 µM", "value": 83.9, "unit": "%"}, {"measurement": "viability, T/C", "setting": "second compound 0.1 µM, first compound 0.316 µM", "value": 86.5, "unit": "%"}, {"measurement": "viability, T/C", "setting": "second compound 0.1 µM, first compound 1 µM", "value": 73.3, "unit": "%"}, {"measurement": "viability, T/C", "setting": "second compound 0.1 µM, first compound 3.16 µM", "value": 70.2, "unit": "%"}, {"measurement": "viability, T/C", "setting": "second compound 0.1 µM, first compound 10 µM", "value": 72.1, "unit": "%"}, {"measurement": "viability, T/C", "setting": "second compound 0.316 µM, first compound 0.0316 µM", "value": 98.7, "unit": "%"}, {"measurement": "viability, T/C", "setting": "second compound 0.316 µM, first compound 0.1 µM", "value": 88.4, "unit": "%"}, {"measurement": "viability, T/C", "setting": "second compound 0.316 µM, first compound 0.316 µM", "value": 82.9, "unit": "%"}, {"measurement": "viability, T/C", "setting": "second compound 0.316 µM, first compound 1 µM", "value": 77.5, "unit": "%"}, {"measurement": "viability, T/C", "setting": "second compound 0.316 µM, first compound 3.16 µM", "value": 78.9, "unit": "%"}, {"measurement": "viability, T/C", "setting": "second compound 0.316 µM, first compound 10 µM", "value": 72.1, "unit": "%"}, {"measurement": "viability, T/C", "setting": "second compound 1 µM, first compound 0.0316 µM", "value": 94.8, "unit": "%"}, {"measurement": "viability, T/C", "setting": "second compound 1 µM, first compound 0.1 µM", "value": 86.7, "unit": "%"}, {"measurement": "viability, T/C", "setting": "second compound 1 µM, first compound 0.316 µM", "value": 80.1, "unit": "%"}, {"measurement": "viability, T/C", "setting": "second compound 1 µM, first compound 1 µM", "value": 76.8, "unit": "%"}, {"measurement": "viability, T/C", "setting": "second compound 1 µM, first compound 3.16 µM", "value": 73.2, "unit": "%"}, {"measurement": "viability, T/C", "setting": "second compound 1 µM, first compound 10 µM", "value": 70.7, "unit": "%"}, {"measurement": "viability, T/C", "setting": "second compound 3.16 µM, first compound 0.0316 µM", "value": 95.1, "unit": "%"}, {"measurement": "viability, T/C", "setting": "second compound 3.16 µM, first compound 0.1 µM", "value": 90.2, "unit": "%"}, {"measurement": "viability, T/C", "setting": "second compound 3.16 µM, first compound 0.316 µM", "value": 82.3, "unit": "%"}, {"measurement": "viability, T/C", "setting": "second compound 3.16 µM, first compound 1 µM", "value": 73.2, "unit": "%"}, {"measurement": "viability, T/C", "setting": "second compound 3.16 µM, first compound 3.16 µM", "value": 75.9, "unit": "%"}, {"measurement": "viability, T/C", "setting": "second compound 3.16 µM, first compound 10 µM", "value": 71.7, "unit": "%"}, {"measurement": "viability, T/C", "setting": "second compound 10 µM, first compound 0.0316 µM", "value": 95.2, "unit": "%"}, {"measurement": "viability, T/C", "setting": "second compound 10 µM, first compound 0.1 µM", "value": 84.1, "unit": "%"}, {"measurement": "viability, T/C", "setting": "second compound 10 µM, first compound 0.316 µM", "value": 79.6, "unit": "%"}, {"measurement": "viability, T/C", "setting": "second compound 10 µM, first compound 1 µM", "value": 78.7, "unit": "%"}, {"measurement": "viability, T/C", "setting": "second compound 10 µM, first compound 3.16 µM", "value": 74, "unit": "%"}, {"measurement": "viability, T/C", "setting": "second compound 10 µM, first compound 10 µM", "value": 62.8, "unit": "%"}]}]}
